Active and inactive are the calls of the source. How the calls were made is not given here. A value given as a limit tells only on which side of the number the result lay.

The experiment concerns the target Replicase polyprotein 1ab (Severe acute respiratory syndrome coronavirus) (UniProt P0C6X7). The experiment is described as follows: papain-like protease inhibition, dose response, biochemical, luminescence, counter-screen for SARS-CoV 3CLpro inhibitor project (AID 1944). Particulars: SARS-CoV PLpro enzymatic assay.
For orientation: IC50 means the concentration that inhibits the measured activity by half. For `Cc1sc(NC(=O)CCl)c(C(=O)c2ccccc2)c1C`, the IC50 was > 59.6 µM (inactive).
To `CC1CCC2C(=O)N(c3cc(Cl)ccc3OC(=O)c3ccco3)C(=O)C2C1` (stereo not given) belongs > 59.6 µM (inactive).
With `O=C(O)c1[nH]c2ccccc2c1C(c1cc(Br)ccc1O)c1c(C(=O)O)[nH]c2ccccc12` the figure was 9.17 µM; with `COc1cc2c(cc1OC)C(c1cc(Br)ccc1F)N(C(=O)CCl)CC2` (stereo not given), > 59.6 µM (inactive); with `Cc1cc(C)n(C(=O)c2ccc(C)c(Br)c2)n1`, “inactive”.
To `COC(=O)c1ccc(OC(=O)CN2C(=O)c3ccccc3C2=O)cc1` belongs “inactive”; to `COc1ccc(C2C(O)C(c3c[nH]c4ccccc34)=NN2C(=O)CCl)cc1` (stereo not given), > 59.6 µM (inactive); to `O=C(Oc1ccc(Cl)cc1N1C(=O)CCC1=O)c1ccco1`, > 59.6 µM (inactive).
As to `COc1cccc(C(C(=O)NCc2ccco2)N(Cc2ccco2)C(=O)Cn2nnc3ccccc32)c1` (stereo not given), the IC50 was > 59.6 µM (inactive).
As for `O=C(/C=C/c1cccs1)Nc1scc(-c2ccccc2)c1C(=O)O`, the 50% inhibitory concentration (IC50) was 0.0455 µM.
To `CC(=O)Nc1ccc(N(C(=O)Cn2nnc3ccccc32)C(C(=O)NC2CCCC2)c2ccc(O)c(O)c2)cc1` (stereo not given) belongs > 59.6 µM (inactive); to `COc1ccc2cc(C3(C)NC(=O)N(CC(=O)NCc4ccco4)C3=O)ccc2c1` (stereo not given), > 59.6 µM (inactive).
To `NC(=O)CCn1c(C(=O)c2cc(Cl)c(N)c(Cl)c2)c2ccccc2[n+]1[O-]` belongs > 59.6 µM (inactive); to `O=C(N/N=C\c1c(O)ccc2ccccc12)c1cncc(Br)c1`, 8.21 µM.
With `O=C(Oc1cccnc1)c1ccc(Cl)cc1` the figure was 7.99 µM; with `O=C(c1cc(=O)[nH]c2ccccc12)N1CCN(c2ccccc2)CC1`, > 59.6 µM (inactive).
As for `COc1cccc(C(C(=O)Nc2ccc(F)cc2)N(C(=O)Cn2nnc3ccccc32)C2CC2)c1` (stereo not given), the IC50 was > 59.6 µM (inactive).
Turning to `CCc1nc(N2CCN(C(=O)CCl)CC2)c2c3c(sc2n1)CC(C)CC3` (stereo not given), the IC50 is > 59.6 µM (inactive).
As for `Nc1ncc(Br)cc1S(=O)(=O)Nc1cc(C(F)(F)F)cc(C(F)(F)F)c1`, the IC50 was > 59.6 µM (inactive).
With `Cc1cccc2c1N(CCOc1ccccc1)C(=O)C2=O` the figure was > 59.6 µM (inactive); with `CC(C)C[C@H](NC(=O)c1nc[nH]c1C(=O)NCc1ccc(CNC(=O)OC(C)(C)C)cc1)C(=O)OC(C)(C)C`, > 59.6 µM (inactive).
With `COc1ccccc1OCCNC(=O)c1cc(=O)[nH]c2ccccc12` the figure was > 59.6 µM (inactive); with `COc1cc(/C=N\NC(=O)Cn2nnc3ccccc32)cc(OC)c1OC`, > 59.6 µM (inactive); with `CCC(C)(C)NC(=O)C(c1ccc(O)cc1)N(C(=O)Cn1nnc2ccccc21)c1ccc(NC(C)=O)cc1` (stereo not given), > 59.6 µM (inactive).
To `Cc1cc(NC(=O)COC(=O)C(Nc2ccc(C(F)(F)F)cc2Cl)C(C)C)no1` (stereo not given) belongs > 59.6 µM (inactive).
On to `CC(=O)c1c(OC(=O)c2ccco2)c2ccccc2n1C`, for which the IC50 was > 59.6 µM (inactive).
With `Cc1cc(NC(=O)COn2nnc3ccc(S(C)(=O)=O)cc32)ccc1Br` the figure was > 59.6 µM (inactive).
With `Cn1cnc2cc(NC(=O)c3ccc(Cl)cc3)ccc21` the figure was 3.28 µM; with `Cc1ccc(C(=O)O)cc1NC(=S)NC(=O)c1ccc(COc2ccccc2)cc1`, 2.48 µM; with `CC(=O)n1cc(N(C(=O)CCl)c2ccc([N+](=O)[O-])cc2)c2ccccc21`, > 59.6 µM (inactive).
Take `O=C(/C=C/c1c(F)cccc1Cl)Nc1cccnc1`: the half-maximal inhibitory concentration (IC50) is 0.0628 µM.
To `Cc1cc(C(=O)CCl)c(C)n1-c1cccc([N+](=O)[O-])c1` belongs > 59.6 µM (inactive); to `CC1(C)C2CC=C(/C=N/NC(=S)Nc3cccnc3)C1C2` (stereo not given), > 59.6 µM (inactive).
With `CC(=O)c1cc(-c2ccccc2)[nH]c1N1CCCC1` the entry was “inactive”; with `O=C(Cn1nnc2ccccc21)c1ccc(Cl)cc1`, 3.97 µM.
Turning to `COc1cc(C2CC(c3cccs3)=NN2C(=O)CCl)ccc1OC(F)F` (stereo not given), the IC50 was > 59.6 µM (inactive).
To `CCN(CC)C(=O)Cn1cc(/C=C2\C(=O)NC(=O)N(c3ccccc3F)C2=O)c2ccccc21` belongs > 59.6 µM (inactive); to `CC(C)c1ccc(N(C(=O)c2ccco2)C(C(=O)NC2CCCC2)c2cccnc2)cc1` (stereo not given), > 59.6 µM (inactive).
Regarding `O=C(NCc1ccco1)C(c1ccco1)N(C(=O)Cn1nnc2ccccc21)c1ccc2c(c1)CCC2` (stereo not given), the IC50 is > 59.6 µM (inactive).
With `O=C1C(=O)N(CC2COc3ccccc3O2)c2ccccc21` (stereo not given) the figure was > 59.6 µM (inactive).
As to `Cc1ccc(C(=O)c2c3ccc(C(F)(F)F)cc3[n+]([O-])n2CCC(N)=O)cc1`, the IC50 was > 59.6 µM (inactive).
To `O=C(CSc1ccccn1)Nc1nonc1[N+](=O)[O-]` belongs > 59.6 µM (inactive); to `CN(C)S(=O)(=O)c1cccc(NC(=O)CSc2cccc3cccnc23)c1`, > 59.6 µM (inactive); to `O=C(O)COc1ccc(Br)cc1C(c1c(C(=O)O)[nH]c2ccccc12)c1c(C(=O)O)[nH]c2ccccc12`, “inactive”.
To `C[C@@]12C(=O)N(c3cccc(Br)c3)C(=O)N1[C@H](c1ccc(Cl)cc1)[C@@H]1C(=O)N(C3CCCCC3)C(=O)[C@@H]12` belongs > 59.6 µM (inactive); to `COc1ccc2c(c1)C(=O)C(=O)N2CC1COc2ccccc2O1` (stereo not given), > 59.6 µM (inactive); to `Cc1ccc2[nH]c3c(c2c1)CN(C(=O)CN1c2ccc(F)cc2CCC1C)CC3` (stereo not given), > 59.6 µM (inactive).
With `CCC(C)(C)NC(=O)C(c1cccn1C)N(C(=O)Cn1nnc2ccccc21)c1ccc(NC(C)=O)cc1` (stereo not given) the figure was > 59.6 µM (inactive); with `O=C(Cn1nnc2ccccc21)c1ccc(Br)cc1`, 2.3 µM.
With `COc1ccc(C(C(=O)NCC2CCCO2)N(C(=O)Cn2nnc3ccccc32)c2ccc(NC(C)=O)cc2)cc1` (stereo not given), the IC50 was > 59.6 µM (inactive).
To `Cc1ccc(C(=O)Oc2ccc3c(c2)ncn3C)cc1` belongs 0.577 µM; to `CC(=O)NC1C(=O)N(CCN2CCOCC2)c2ccc(F)cc21` (stereo not given), > 59.6 µM (inactive).
With `O=C(Nc1ccc(OCC(F)(F)C(F)F)c(C(F)(F)F)c1)c1ccccc1O` the figure was 0.596 µM; with `O=Cc1cn(Cc2ccccc2)nc1-c1cccnc1`, > 59.6 µM (inactive); with `COc1ccc(C(=O)n2c(SC)nc3cc4c(cc32)OCCO4)cc1`, 2.46 µM.
To `CC(C)c1ccc(N(C(=O)c2csnn2)C(C(=O)NC2CCCC2)c2cccnc2)cc1` (stereo not given) belongs > 59.6 µM (inactive).
For `Cc1ccc(C(=O)n2cnc3ccccc32)cc1C`, the concentration for half-maximal inhibition (IC50) was 9.11 µM.
With `Cc1ccc(C2CC(c3cccs3)=NN2C(=O)CCl)cc1` (stereo not given), the IC50 entry is “inactive”.
In the case of `Cc1ccc(/C=C/C(=O)c2cc(Br)ccc2OC(=O)c2ccco2)cc1`, the IC50 was > 59.6 µM (inactive).
With `O=C(c1cc(=O)[nH]c2ccccc12)N1CCN(c2cccc(C(F)(F)F)c2)CC1` the figure was > 59.6 µM (inactive).
With `Cc1cc(C)c(N(C(=O)Cn2nnc3ccccc32)C(C(=O)NC(C)(C)C)c2ccsc2)c(C)c1` (stereo not given) the figure was > 59.6 µM (inactive).
In the case of `CCC(C)c1ccc(N(C(=O)c2ccco2)C(C(=O)NC2CCCC2)c2cccnc2)cc1` (stereo not given), the IC50 result was “inactive”.
Take `Cc1cc(=O)oc2cc(NC(=O)Cc3ccccc3[N+](=O)[O-])ccc12`: the IC50 was > 59.6 µM (inactive).
With `O=C(OCC(=O)N1c2ccccc2Sc2ccccc21)c1cccnc1` the figure was > 59.6 µM (inactive); with `O=C1C(=O)N(CCCc2ccccc2)c2ccccc21`, “inactive”; with `O=C1NC(=O)N(c2ccccc2F)C(=O)/C1=C/c1cn(CC(=O)N2CCOCC2)c2ccccc12`, > 59.6 µM (inactive).
In the case of `CC(C)C12CN(C(=O)c3ccccc3[N+](=O)[O-])CC(C(C)C)(CN(C(=O)c3ccccc3[N+](=O)[O-])C1)C2=O`, the IC50 was > 59.6 µM (inactive).
With `COc1cccc(/C=N/NC(=S)Nc2cccnc2)c1` the entry was “inactive”; with `COc1ccc(N(C(=O)Cn2nnc3ccccc32)C2(C(=O)NC3CCCC3)CCCCC2)cc1`, > 59.6 µM (inactive).
With `O=C(/C=C/c1ccccc1Cl)Nc1cccnc1` the figure was 0.0388 µM.
Take `COc1cccc(C(C(=O)NCC2CCCO2)N(C(=O)Cn2nnc3ccccc32)c2ccc(NC(C)=O)cc2)c1` (stereo not given): the IC50 is > 59.6 µM (inactive).
To `COc1ccc(C(=O)Oc2cccnc2)cc1` belongs > 59.6 µM (inactive).
For the compound `COc1ccccc1/C=C/C(=O)c1cc(Br)ccc1OC(=O)c1ccco1`, the IC50 result is “inactive”.
To `O=c1[nH]c(=O)n(-c2ccccc2F)c(O)c1/C=C1\C=Nc2ccccc21` belongs > 59.6 µM (inactive).
On to `Cc1cccc(N2CCN(C(=O)c3cc(=O)[nH]c4ccccc34)CC2)c1C`, for which the IC50 is > 59.6 µM (inactive).
To `Cc1cc(C)c(C)c(S(=O)(=O)N2CCN(C(=O)c3cc(=O)[nH]c4ccccc34)CC2)c1C` belongs > 59.6 µM (inactive); to `CC(=O)NC1C(=O)N(CCN2CCOCC2)c2ccc(Br)cc21` (stereo not given), > 59.6 µM (inactive).
To `O=C(CCl)N(CCc1ccccc1)CCc1ccccc1` belongs “inactive”; to `Cc1nnc(SC(=O)N2c3ccccc3Sc3ccccc32)s1`, > 59.6 µM (inactive); to `Cc1ccc(-c2cc(NC(=O)c3ccccc3[N+](=O)[O-])n[nH]2)cc1`, “inactive”.
With `NC(=O)CCn1c(C(=O)c2ccc(Cl)cc2)c2ccccc2[n+]1[O-]` the figure was > 59.6 µM (inactive); with `Cn1nc(-c2ccc(Cl)cc2)nc2c(=O)n(C)c(=O)nc1-2`, 0.111 µM.
With `COc1ccc(C2CC(c3cccs3)=NN2C(=O)CCl)cc1OC` (stereo not given), the IC50 was > 59.6 µM (inactive).
To `O=C(Oc1ccc(Br)cc1C(=O)/C=C/c1ccccc1F)c1ccco1` belongs > 59.6 µM (inactive); to `O=C(Cc1ccc(Cl)c(Cl)c1)Nc1cccnc1`, “inactive”.

These data come from PubChem BioAssay AID1944 (The Scripps Research Institute Molecular Screening Center, 2009).
